{"source": "BindingDB's records for doi:10.1021/jm8010993", "assay_in_all_cases": "PDE4 Enzyme Assay", "conditions_in_all_cases": "pH 8; 34 °C", "key": {"[1]": {"target": "cAMP-specific 3',5'-cyclic phosphodiesterase 4A (Homo sapiens, UniProt P27815)", "sequence (P27815 whole entry)": "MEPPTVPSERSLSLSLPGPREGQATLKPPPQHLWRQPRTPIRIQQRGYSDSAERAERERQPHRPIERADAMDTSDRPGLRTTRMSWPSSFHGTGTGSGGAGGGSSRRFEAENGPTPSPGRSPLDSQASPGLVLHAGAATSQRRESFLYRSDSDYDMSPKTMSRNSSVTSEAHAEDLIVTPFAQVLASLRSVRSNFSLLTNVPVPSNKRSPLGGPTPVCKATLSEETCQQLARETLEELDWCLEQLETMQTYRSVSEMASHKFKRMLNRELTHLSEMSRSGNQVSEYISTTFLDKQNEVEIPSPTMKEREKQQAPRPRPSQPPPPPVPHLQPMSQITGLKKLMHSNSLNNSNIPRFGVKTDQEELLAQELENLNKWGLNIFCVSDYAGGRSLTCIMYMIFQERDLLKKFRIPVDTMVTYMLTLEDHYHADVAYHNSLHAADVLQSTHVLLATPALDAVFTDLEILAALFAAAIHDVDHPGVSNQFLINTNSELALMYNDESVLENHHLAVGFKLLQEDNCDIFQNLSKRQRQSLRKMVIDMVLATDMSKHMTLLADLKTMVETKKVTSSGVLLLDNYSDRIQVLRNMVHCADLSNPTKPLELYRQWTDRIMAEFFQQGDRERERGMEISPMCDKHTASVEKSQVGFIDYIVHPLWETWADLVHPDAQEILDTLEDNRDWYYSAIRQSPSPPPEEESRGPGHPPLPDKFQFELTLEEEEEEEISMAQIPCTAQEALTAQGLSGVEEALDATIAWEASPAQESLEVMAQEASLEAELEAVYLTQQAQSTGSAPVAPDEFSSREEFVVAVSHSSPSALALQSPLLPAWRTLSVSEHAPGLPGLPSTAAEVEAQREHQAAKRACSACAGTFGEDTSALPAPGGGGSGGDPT", "protocol": "(§1) The samples were assayed in a solution composed of PDE4, [3H]cAMP/cAMP, and test compounds. To convert AMP to adenosine, snake venom was added to each sample after reactions were stopped. The reaction products were separated by anion-exchange chromatography performed on AGl-X8 resin, and the amount of unbound [3H] adenosine was collected and quantified by scintillation counting."}, "[2]": {"target": "cAMP-specific 3',5'-cyclic phosphodiesterase 4D (Homo sapiens, UniProt Q08499)", "sequence (Q08499 whole entry)": "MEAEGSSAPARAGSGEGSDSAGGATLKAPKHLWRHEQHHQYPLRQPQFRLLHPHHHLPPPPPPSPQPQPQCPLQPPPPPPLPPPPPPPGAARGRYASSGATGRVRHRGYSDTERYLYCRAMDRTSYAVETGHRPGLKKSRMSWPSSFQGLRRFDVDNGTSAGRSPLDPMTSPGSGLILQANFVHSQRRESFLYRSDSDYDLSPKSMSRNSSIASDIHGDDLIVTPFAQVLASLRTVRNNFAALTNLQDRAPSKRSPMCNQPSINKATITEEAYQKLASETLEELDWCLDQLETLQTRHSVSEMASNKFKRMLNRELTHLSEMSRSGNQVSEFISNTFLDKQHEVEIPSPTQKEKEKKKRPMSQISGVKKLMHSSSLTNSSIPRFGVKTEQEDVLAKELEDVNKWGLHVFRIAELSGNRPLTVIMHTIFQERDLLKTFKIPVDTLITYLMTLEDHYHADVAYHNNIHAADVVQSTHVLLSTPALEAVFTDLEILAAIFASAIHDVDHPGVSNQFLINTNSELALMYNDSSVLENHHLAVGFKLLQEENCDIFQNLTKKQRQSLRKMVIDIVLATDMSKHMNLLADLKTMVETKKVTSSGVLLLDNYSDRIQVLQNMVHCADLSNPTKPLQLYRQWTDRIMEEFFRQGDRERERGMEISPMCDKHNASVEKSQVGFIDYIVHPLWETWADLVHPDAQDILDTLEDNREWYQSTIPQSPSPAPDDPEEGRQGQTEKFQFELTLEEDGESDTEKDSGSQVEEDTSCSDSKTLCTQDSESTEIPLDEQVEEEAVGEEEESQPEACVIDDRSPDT", "protocol": "as §1"}, "[3]": {"target": "cAMP-specific 3',5'-cyclic phosphodiesterase 4B (Homo sapiens, UniProt Q07343)", "sequence (Q07343 whole entry)": "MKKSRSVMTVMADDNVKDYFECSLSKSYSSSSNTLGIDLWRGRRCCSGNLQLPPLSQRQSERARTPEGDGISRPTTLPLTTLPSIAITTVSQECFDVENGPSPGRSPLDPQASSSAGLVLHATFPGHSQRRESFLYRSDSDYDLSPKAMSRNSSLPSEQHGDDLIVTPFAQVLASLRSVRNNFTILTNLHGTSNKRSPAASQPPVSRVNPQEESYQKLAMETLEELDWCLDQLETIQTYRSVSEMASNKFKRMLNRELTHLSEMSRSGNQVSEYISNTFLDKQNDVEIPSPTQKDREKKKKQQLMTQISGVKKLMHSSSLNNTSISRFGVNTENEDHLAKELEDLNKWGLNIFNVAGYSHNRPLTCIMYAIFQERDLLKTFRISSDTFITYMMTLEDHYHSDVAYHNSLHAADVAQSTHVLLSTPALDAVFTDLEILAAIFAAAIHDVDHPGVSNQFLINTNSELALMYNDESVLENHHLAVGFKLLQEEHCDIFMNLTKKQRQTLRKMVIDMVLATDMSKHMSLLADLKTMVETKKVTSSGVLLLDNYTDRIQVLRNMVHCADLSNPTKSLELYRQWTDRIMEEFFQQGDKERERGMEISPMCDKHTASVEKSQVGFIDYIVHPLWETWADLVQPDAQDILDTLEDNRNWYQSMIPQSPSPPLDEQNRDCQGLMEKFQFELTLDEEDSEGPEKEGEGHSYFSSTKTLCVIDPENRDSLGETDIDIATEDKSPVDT", "protocol": "as §1"}}}
{"smiles": "COc1ccc(F)c(CCC2CCC(CCNCCCCCN3N=C(c4ccc(OC)c(OC)c4)C4CC=CCC4C3=O)O2)c1", "note": "(stereo not drawn) [phthalazinone, 21]", "values": [{"measurement": "Ki", "setting": "[1]", "value": "> 1000", "unit": "nM"}, {"measurement": "Ki", "setting": "[2]", "value": 2, "unit": "nM"}, {"measurement": "Ki", "setting": "[3]", "value": 199, "unit": "nM"}]}
